Results taken from ChEMBL document CHEMBL4813948, “Cytotoxic and Anti-Inflammatory Sesquiterpenes from the Whole Plants of Centipeda minima” (J Nat Prod, 2021).

Tests used:
[1] = tested on: HeLa; assay: Cytotoxicity against human HeLa cells assessed as reduction in cell viability incubated for 48 hrs by MTT assay; assay type: functional, cell-based
[2] = tested on: HCT-116; assay: Cytotoxicity against human HCT-116 cells assessed as reduction in cell viability incubated for 48 hrs by MTT assay; assay type: functional, cell-based; conditions: HCT-116, 48 h
[3] = tested on: HepG2; assay: Cytotoxicity against human HepG2 cells assessed as reduction in cell viability incubated for 48 hrs by MTT assay; assay type: functional, cell-based; conditions: HepG2, 48 h
[4] = tested on: RAW264.7; assay: Anti-inflammatory activity in mouse RAW264.7 cells assessed as inhibition of LPS-induced NO production incubated for 24 hrs by Griess reagent based assay; assay type: functional, cell-based; conditions: RAW264.7, 24 h
[5] = tested on: RAW264.7; assay: Cytotoxicity against mouse RAW264.7 cells after 24 hrs by MTT assay; assay type: cell-based; conditions: raw264.7, 24 h

SMILES	IC50 [1]	IC50 [2]	IC50 [3]	IC50 [4]	Activity [5]
C=C(C)C(=O)O[C@H]1[C@@H]2[C@H](C)C(=O)O[C@@H]2C[C@@H](C)[C@@H]2CCC(=O)[C@]21C	> 10 µM	> 10 µM	> 10 µM		
C=C(C)C(=O)O[C@@H]1[C@@H]2[C@H](C[C@H](C)C3=CCC(=O)[C@@]31C)OC(=O)[C@@H]2C	> 10 µM	> 10 µM	> 10 µM		
C=C(C)C(=O)O[C@@H]1C[C@H](OC(=O)C(C)C)[C@H]2[C@H](C)C[C@@H]3OC(=O)C(=C)[C@H]3C[C@@]21C	> 10 µM	> 10 µM	> 10 µM	3.9 µM	
C=C1C(=O)O[C@H]2C[C@@H](C)[C@@H]3[C@@H](OC(=O)/C(C)=C/C)C[C@@H](OC(=O)/C(C)=C\C)[C@@]3(C)C[C@H]12	7.8 µM	6.6 µM	4.1 µM		
C=C1C(=O)O[C@H]2C[C@@H](C)[C@@H]3[C@@H](OC(=O)/C(C)=C\C)C[C@@H](OC(=O)CC(C)C)[C@@]3(C)C[C@H]12	9.4 µM	5.2 µM	2.9 µM	> 10 µM	
CCC(C)C(=O)O[C@H]1[C@@H]2[C@H](C)C(=O)O[C@@H]2C[C@@H](C)[C@@H]2C=CC(=O)[C@]21C (stereo not given in full)	2.4 µM	7.3 µM	> 10 µM	2.4 µM	
C/C=C(/C)C(=O)O[C@H]1[C@@H]2[C@H](C)C(=O)O[C@@H]2C[C@@H](C)[C@@H]2[C@@H](OCC)CC(=O)[C@]21C	> 10 µM	> 10 µM	> 10 µM	> 10 µM	
C/C=C(\C)C(=O)O[C@H]1[C@@H]2[C@H](C)C(=O)O[C@@H]2C[C@@H](C)[C@@H]2C=CC(=O)[C@]21C	> 10 µM	> 10 µM	> 10 µM	> 10 µM	
C=C1C(=O)O[C@@H]2C[C@@H](C)[C@@H]3C=CC(=O)[C@@]3(C)[C@@H](OC(=O)CC(C)C)[C@H]12	2 µM	3.3 µM	2.6 µM	0.2 µM	
C=C1C(=O)O[C@H]2C[C@@H](C)[C@@H]3[C@@H](OC(=O)C(C)C)C[C@@H](OC(=O)/C(C)=C/C)[C@@]3(C)C[C@H]12	> 10 µM	> 10 µM	8.7 µM		
C=C1C(=O)O[C@H]2C[C@@H](C)[C@@H]3[C@@H](OC(=O)C=C(C)C)C[C@@H](OC(=O)/C(C)=C\C)[C@@]3(C)C[C@H]12	> 10 µM	9.4 µM	3.5 µM		
C=C1C(=O)O[C@@H]2C[C@@H](C)[C@@H]3C=CC(=O)[C@@]3(C)[C@@H](OC(=O)C=C(C)C)[C@H]12	2.6 µM	0.8 µM	1.5 µM		
C=C1C(=O)O[C@@H]2C[C@@H](C)[C@@H]3[C@@H](OC)CC(=O)[C@@]3(C)[C@@H](OC(=O)/C(C)=C\C)[C@H]12	> 10 µM	> 10 µM	> 10 µM		
C/C=C(/C)C(=O)O[C@H]1[C@@H]2[C@H](C)C(=O)O[C@@H]2C[C@@H](C)[C@@H]2[C@H](OC)CC(=O)[C@]21C	> 10 µM	> 10 µM	> 10 µM	> 10 µM	
C=C1C(=O)O[C@H]2C[C@@H](C)[C@@H]3[C@@H](OC(=O)C(C)C)C[C@@H](OC(=O)C=C(C)C)[C@@]3(C)C[C@H]12	> 10 µM	8.1 µM	6.5 µM		
C=C1C(=O)O[C@H]2C[C@@H](C)[C@@H]3[C@@H](OC(=O)C(C)C)C[C@@H](OC(=O)CC(C)C)[C@@]3(C)C[C@H]12	> 10 µM	> 10 µM	> 10 µM	0.2 µM	
C=C1C(=O)O[C@H]2C[C@@H](C)[C@@H]3[C@@H](OC(=O)CC(C)C)C[C@@H](OC(=O)CC(C)C)[C@@]3(C)C[C@H]12	> 10 µM	9.9 µM	> 10 µM	0.1 µM	
C/C=C(/C)C(=O)O[C@H]1[C@@H]2[C@H](C)C(=O)O[C@@H]2C[C@@H](C)[C@@H]2C=CC(=O)[C@]21C [BREVILIN A]	9.2 µM	> 10 µM	> 10 µM		Toxic
CC(C)=CC(=O)O[C@H]1[C@@H]2[C@H](C)C(=O)O[C@@H]2C[C@@H](C)[C@@H]2CCC(=O)[C@]21C	> 10 µM	> 10 µM	> 10 µM		
CC(C)CC(=O)O[C@H]1[C@@H]2[C@H](C)C(=O)O[C@@H]2C[C@@H](C)[C@@H]2C=CC(=O)[C@]21C	5.5 µM	7.2 µM	> 10 µM	1.7 µM	
C=C1C(=O)O[C@H]2C[C@@H](C)[C@@H]3[C@@H](OC(=O)C(C)C)C[C@@H](OC(=O)C(C)C)[C@@]3(C)C[C@H]12	> 10 µM	> 10 µM	6.5 µM		
C=C1C(=O)O[C@@H]2C[C@@H](C)[C@@H]3C=CC(=O)[C@@]3(C)[C@@H](OC(=O)/C(C)=C\C)[C@H]12	0.8 µM	2.9 µM	1.1 µM		
CC(C)=CC(=O)O[C@H]1[C@@H]2[C@H](C)C(=O)O[C@@H]2C[C@@H](C)C2=CCC(=O)[C@]21C	> 10 µM	> 10 µM	> 10 µM		
C/C=C(/C)C(=O)O[C@H]1[C@@H]2[C@H](C)C(=O)O[C@@H]2C[C@@H](C)[C@@H]2CCC(=O)[C@]21C	> 10 µM	> 10 µM	> 10 µM	> 10 µM	
C=C1C(=O)O[C@@H]2C[C@@H](C)[C@@H]3C=CC(=O)[C@@]3(C)[C@@H](OC(=O)C(C)C)[C@H]12 [HELENALINISOBUTYRATE]	1.4 µM	0.4 µM	1.8 µM		
C=C1C(=O)O[C@@H]2C[C@@H](C)[C@@H]3C(OC(=O)/C(C)=C\C)=C[C@@]4(C)O[C@@]34C[C@H]12	> 10 µM	> 10 µM	> 10 µM		
